For one test, the target named is T1, human TLR7 (Homo sapiens, UniProt Q9NYK1).
T1 construct: expressed in transfected cells; host or cells: HEK293
T1 sequence (Q9NYK1 27-1049): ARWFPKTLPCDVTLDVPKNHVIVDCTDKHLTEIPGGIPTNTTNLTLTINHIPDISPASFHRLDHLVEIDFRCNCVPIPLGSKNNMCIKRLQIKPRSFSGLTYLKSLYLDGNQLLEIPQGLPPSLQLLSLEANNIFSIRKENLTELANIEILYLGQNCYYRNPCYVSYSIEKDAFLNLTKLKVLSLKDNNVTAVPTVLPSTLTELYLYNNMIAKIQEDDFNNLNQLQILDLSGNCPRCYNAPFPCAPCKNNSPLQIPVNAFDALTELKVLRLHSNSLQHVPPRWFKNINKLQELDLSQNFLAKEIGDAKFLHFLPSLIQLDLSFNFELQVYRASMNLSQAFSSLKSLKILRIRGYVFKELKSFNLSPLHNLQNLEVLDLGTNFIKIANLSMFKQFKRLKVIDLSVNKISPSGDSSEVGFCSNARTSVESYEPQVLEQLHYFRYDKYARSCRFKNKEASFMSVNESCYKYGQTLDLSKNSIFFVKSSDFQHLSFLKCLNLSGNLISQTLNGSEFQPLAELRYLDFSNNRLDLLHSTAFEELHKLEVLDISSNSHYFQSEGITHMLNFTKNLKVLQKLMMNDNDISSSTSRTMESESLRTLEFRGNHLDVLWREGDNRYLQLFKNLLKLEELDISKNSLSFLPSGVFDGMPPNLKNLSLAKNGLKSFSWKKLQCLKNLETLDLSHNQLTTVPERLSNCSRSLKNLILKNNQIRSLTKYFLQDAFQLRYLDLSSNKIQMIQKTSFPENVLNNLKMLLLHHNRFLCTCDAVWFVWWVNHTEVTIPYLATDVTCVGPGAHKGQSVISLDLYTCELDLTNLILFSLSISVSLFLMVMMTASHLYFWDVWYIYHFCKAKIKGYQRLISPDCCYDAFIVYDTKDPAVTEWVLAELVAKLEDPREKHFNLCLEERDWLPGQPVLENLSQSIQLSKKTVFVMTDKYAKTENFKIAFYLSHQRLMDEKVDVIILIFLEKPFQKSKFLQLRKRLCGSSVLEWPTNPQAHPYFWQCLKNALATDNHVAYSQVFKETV
Briefly: TLR ligand screening: NF-κB SEAP reporter in HEK293 cells expressing TLR7. It counts as cell-based. Particulars: one concentration: NTR001 10 uM, Inosine 100 uM, triplicate, FIG. 2. The method, then: (§1) Toll-Like Receptor (TLR) Ligand Screening: In-vitro Activity of the PNPi, Guanosine and Inosine on Seven Different Human TLRs (TLR2, 3, 4, 5, 7, 8 and 9) as a Potential Agonist.
(§2) Method: TLR stimulation is tested by assessing NF-KB activation in HEK293 cells expressing a given TLR. The Secreted Embryonic Alkaline Phosphatase (SEAP) reporter is under the control of a promoter inducible by the transcription factor NF-κB.
(§3) This reporter gene allows the monitoring of signaling through the TLR, based on the activation of NF-κB. The compounds are evaluated at one concentration and compared to control ligands. This step is performed in triplicate.

The target of the next test is T2, human TLR8 (Homo sapiens, UniProt Q9NR97).
T2 construct: expressed in transfected cells; host or cells: HEK293
T2 sequence (Q9NR97 27-1041): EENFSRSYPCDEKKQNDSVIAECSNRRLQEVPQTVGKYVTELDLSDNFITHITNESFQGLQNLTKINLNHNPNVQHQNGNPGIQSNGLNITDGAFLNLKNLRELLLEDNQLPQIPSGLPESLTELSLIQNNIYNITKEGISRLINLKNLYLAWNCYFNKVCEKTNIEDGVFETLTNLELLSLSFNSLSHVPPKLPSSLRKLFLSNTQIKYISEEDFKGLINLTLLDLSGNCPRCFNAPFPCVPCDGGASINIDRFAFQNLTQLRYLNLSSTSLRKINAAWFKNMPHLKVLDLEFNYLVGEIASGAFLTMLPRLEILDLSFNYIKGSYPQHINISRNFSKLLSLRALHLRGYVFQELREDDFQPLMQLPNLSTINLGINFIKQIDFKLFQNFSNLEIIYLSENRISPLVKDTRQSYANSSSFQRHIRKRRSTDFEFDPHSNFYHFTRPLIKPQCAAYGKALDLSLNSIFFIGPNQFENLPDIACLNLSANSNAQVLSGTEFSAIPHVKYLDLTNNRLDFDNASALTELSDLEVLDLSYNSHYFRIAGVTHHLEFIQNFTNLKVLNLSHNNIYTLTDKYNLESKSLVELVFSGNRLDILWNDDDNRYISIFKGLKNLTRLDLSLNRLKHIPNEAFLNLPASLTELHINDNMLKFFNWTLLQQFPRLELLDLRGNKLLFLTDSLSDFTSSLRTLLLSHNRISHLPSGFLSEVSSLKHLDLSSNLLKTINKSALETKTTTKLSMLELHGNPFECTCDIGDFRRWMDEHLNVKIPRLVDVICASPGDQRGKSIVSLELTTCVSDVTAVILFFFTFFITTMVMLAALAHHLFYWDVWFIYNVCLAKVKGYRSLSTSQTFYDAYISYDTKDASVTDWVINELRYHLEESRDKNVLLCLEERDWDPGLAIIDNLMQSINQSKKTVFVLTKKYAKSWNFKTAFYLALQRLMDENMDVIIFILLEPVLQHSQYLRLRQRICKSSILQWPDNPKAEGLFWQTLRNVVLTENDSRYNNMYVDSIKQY
Briefly: TLR ligand screening: NF-κB SEAP reporter in HEK293 cells expressing TLR8. It counts as cell-based. Particulars: one concentration: NTR001 10 uM, Inosine 100 uM, triplicate, FIG. 2. The method, then:
as §1, §2, §3

Another test concerns tetanus toxoid vaccine. Nature of the test: PNPi as adjuvant in tetanus toxoid vaccine efficacy study (tetanus toxoid mouse model). It counts as in vivo, mice. The conditions noted are these: compared to vehicle treated group. The method, then: This Example Evaluates PNPi as an Adjuvant in Tetanus Toxoid Vaccine Efficacy Study.
Method: Tetanus toxoid (TT) was used to vaccinate mice thrice, two weeks apart. Mice were treated by oral administration of compounds NTR001 and NTR002 and serum was collected at various time points for antibody titer and interferon-g analysis. Mice in Groups 2-6 (Table 2) are vaccinated subcutaneously with 0.1 ml tetanus toxoid vaccine on DAYS 0, 14 and 28. Mice in Group 1 (Table 1) received no vaccine. Antibody titers for DAYS 38 are determined by ELISA using tetanus toxoid coated microtiter plates and anti-mouse conjugate. Sera from DAY 30 are assayed by ELISA for interferon-g.

For a further test, the system named is B16 tumors. Particulars: NTR001 60 mg/kg PO; CTLA4-Ab 100, 50, 50 ug IP; days 0, 3 and 6; FIG. 11.
Test [1] concerns L. monocytogenes (ATCC Strain35152, hemolytic substrain). The conditions noted are these: 30 mg/kg PO or IP, or 2 mg/kg drinking water; 1×10^6 CFU i.v.; FIGS. 7 and 9.

Turning to `OC[C@H]1O[C@@H](n2cnc3c(O)ncnc32)[C@H](O)[C@@H]1O` [Inosine, inosine], the “stimulatory effect on human TLR7 (NF-κB activation)” value at human TLR7 is listed as “do not exhibit a stimulatory effect”. Also, on human TLR8, the “stimulatory effect on human TLR8 (NF-κB activation)” value was “do not exhibit a stimulatory effect”.

`O=c1[nH]cnc2c([C@@H]3N[C@H](CO)[C@@H](O)[C@H]3O)c[nH]c12` [NTR001, 7-[(2S,3S,4R,5R)-3,4-dihydroxy-5-(hydroxymethyl)-2-pyrrolidinyl]-1,5-dihyro-4-H-pyrrolo-[3,2-d]pyrimidin-4-one]: the serum interferon-g levels entry in the test on tetanus toxoid vaccine (day 30, ELISA, high dose group 60 mg/kg p.o., FIG. 4) is “elevated”. Further, the “serum tetanus toxoid antibody titers” value with tetanus toxoid vaccine (day 38, ELISA, p.o. 30 mg/kg (6 days of treatment) and 60 mg/kg (3 days of treatment), FIG. 3) was “significantly elevated”. In addition, the “stimulatory effect on human TLR7 (NF-κB activation)” value at human TLR7 is “do not exhibit a stimulatory effect”. In the test with B16 tumors, the tumor volume entry is reported as “decrease in tumor volume but was not statistically significant”. The “stimulatory effect on human TLR8 (NF-κB activation)” value at human TLR8 is given as “do not exhibit a stimulatory effect”. Besides, in test [1], the weight loss result is “significant decrease”.

(Values after patent publication US20170209447A1, “Use of PNP Inhibitor to Treat Relapse of Malignancy after Hematopoietic Stem Cell Transplant” (Nitor Therapeutics, priority 2014, published 2017).)
